The results in this text go back to patent US6689757B1, “Methods for vaccination and vaccines therefor” (M.L. Laboratories PLC, priority 1996, dated 2004).

Entries after “also recorded” stand apart in the source; their conditions may differ. Like-named read-outs stand apart in the source and are kept apart here.

In one data set the test system is human dendritic cells. Type of data set: cell-based.
Data set [1] is described as follows: Zeta potential analysis of K6CL22-DNA complexes. Type of data set: physicochemical. The settings on record: peptide:DNA ratio 1.4:1; Hepes.
The subject of the next data set is cells. Format: cell-based.
In the next data set the test system is COS cells. Format: cell-based. Particulars: pCMVβ DNA; medium with chloroquine; 5 hours; triplicate; FIG. 7.
Data set [2] is described as follows: Photon correlation spectroscopy (PCS) particle size of K6CL22-DNA complexes. Type of data set: physicochemical.

With “H-KKKKKKKKKKKKGGFLGFWRGENGRKTRSAYERMCNILKGK-OH [CL26]”, the “optimal peptide:DNA ratio for transfection” value with human dendritic cells ([…], FIGS. 16 and 17) is listed as 1.6 mg CL26:1 mg DNA. The “transfection efficiency, CL26-complexed DNA compared to CL22-complexed DNA” value in the data set with human dendritic cells ([…], FIGS. 16 and 17) is listed as “higher efficiency”; with human dendritic cells (peptide/DNA ratio between 1 and 1.8, FIG. 18), “higher efficiency”.

Take “NH2-KKKKKKGGFLGFWRGENGRKTRSAYERMCNILKGK-COOH (H-KKKKKKGGFLGFWRGENGRKTRSAYERMCNILKGK-OH) [K6CL22]”: the “zeta potential of the complex” value in data set [1] is on record as “zero”. In addition, the “effect of coadministered chloroquine on transfection efficiency” value in the data set on cells is “Increased transfection efficiency”. For the same substance, the “optimal peptide:DNA ratio for transfection” value in the data set with human dendritic cells ([…], FIGS. 16 and 17) was 1.6-2.2 mg CL22:1 mg DNA. Also, the “transfection of dendritic cells” value in the data set on human dendritic cells (complexes of K6Cl22 peptide and pCMVb) is “have been transfected”. The “transfection efficiency, CL22-complexed DNA compared to CL26-complexed DNA” value with human dendritic cells (peptide/DNA ratio between 2 and 2.6, FIG. 18) is reported as “greater”. Moreover, the “peptide/DNA ratio with highest transfection efficiency” value in the data set with human dendritic cells (ratio varied 1.2-2.6, 40 μM chloroquine, […], FIG. 10) is 1.4-2.0. For the same substance, the “transfection of COS cells (β-galactosidase activity, relative light units per mg of protein)” value with COS cells is given as “have been transfected; also recorded: very efficient transfection”. Also, in data set [2] (150 mM NaCl, after one hour at room temperature, DNA 40 μg/ml), the “size of large particles/aggregates of complex” value was “approx. 100 nm”. In data set [2] (K6CL22-DNA complexes), the “average (Zav) particle size” value is on record as “approximately 100 nm”, the “average ratio at which aggregation occurs” value was found to be 1.4 μg peptide/μg DNA and the “ratio range in which aggregation occurs” value is on record as 1.2-1.6 μg peptide/μg DNA.
